Measured values reported in ChEMBL document CHEMBL1201862, “PubChem BioAssay data set” (2004).
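Briefly, cells in 96-well plates were exposed to five compound concentrations for 48 h, and endpoints were estimated by linear interpolation. GI50 = concentration required for 50% inhibition of growth.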 Active and inactive are the calls of the source. Rule as the data show it: active = GI50 up to about 1.1 µM and inactive = higher.

Assays:
Assay in all cases: inhibition of tumour cell growth, NCI panel, 48 h
[1] = system: SF-539
[2] = system: EKVX
[3] = system: UACC-257
[4] = system: ACHN
[5] = system: U-251
[6] = system: HOP-92
[7] = system: CAKI-1
[8] = system: M14
[9] = system: LOX IMVI
[10] = system: HOP-62
[11] = system: A549
[12] = system: Malme-3M
[13] = system: OVCAR-3
[14] = system: MDA-N
[15] = system: SR
[16] = system: MDA-MB-435
[17] = system: NCI-H522
[18] = system: MOLT-4
[19] = system: HCC 2998
[20] = system: COLO 205
[21] = system: SK-OV-3
[22] = system: SNB-75
[23] = system: SF-268
[24] = system: KM12
[25] = system: SW-620
[26] = system: 786-0
[27] = system: DU-145
[28] = system: OVCAR-8
[29] = system: TK-10
[30] = system: UO-31
[31] = system: BT-549
[32] = system: HCT-15
[33] = system: RPMI-8226
[34] = system: A498
[35] = system: IGROV-1
[36] = system: SK-MEL-2
[37] = system: HL-60
[38] = system: NCI/ADR-RES
[39] = system: OVCAR-5
[40] = system: MDA-MB-231
[41] = system: SK-MEL-5
[42] = system: NCI-H226
[43] = system: SN12C
[44] = system: T47D
[45] = system: MCF7
[46] = system: UACC-62
[47] = system: NCI-H23
[48] = system: K562
[49] = system: HT-29
[50] = system: HCT-116
[51] = system: PC-3
[52] = system: SF-295
[53] = system: CCRF-CEM
[54] = system: SK-MEL-28
[55] = system: SNB-19
[56] = system: OVCAR-4
[57] = system: NCI-H460
[58] = system: Hs-578T
[59] = system: RXF 393

COc1ccc2c(c1)OCC1Cc3ccccc3OC21 (stereo not drawn)
GI50 [1]: > 100 µM (inactive)
GI50 [2]: 49.9 µM (inactive)
GI50 [3]: 52 µM (inactive)
GI50 [4]: > 100 µM (inactive)
GI50 [5]: > 10 µM (inactive)
GI50 [6]: > 100 µM (inactive)
GI50 [7]: > 100 µM (inactive)
GI50 [8]: 69.5 µM (inactive)
GI50 [9]: > 100 µM (inactive)
GI50 [10]: > 100 µM (inactive)
GI50 [11]: > 100 µM (inactive)
GI50 [12]: > 100 µM (inactive)
GI50 [13]: > 100 µM (inactive)
GI50 [14]: > 10 µM (inactive)
GI50 [15]: > 100 µM (inactive)
GI50 [16]: > 100 µM (inactive)
GI50 [17]: > 100 µM (inactive)
GI50 [18]: 54.1 µM (inactive)
GI50 [19]: > 100 µM (inactive)
GI50 [20]: > 100 µM (inactive)
GI50 [21]: > 100 µM (inactive)
GI50 [22]: > 100 µM (inactive)
GI50 [23]: > 100 µM (inactive)
GI50 [24]: 74 µM (inactive)
GI50 [25]: > 100 µM (inactive)
GI50 [26]: > 100 µM (inactive)
GI50 [27]: > 100 µM (inactive)
GI50 [28]: > 100 µM (inactive)
GI50 [29]: > 100 µM (inactive)
GI50 [30]: > 100 µM (inactive)
GI50 [31]: > 100 µM (inactive)
GI50 [32]: > 100 µM
GI50 [33]: 75.7 µM (inactive)
GI50 [34]: > 10 µM (inactive)
GI50 [35]: > 100 µM (inactive)
GI50 [36]: > 100 µM (inactive)
GI50 [37]: > 100 µM (inactive)
GI50 [38]: > 100 µM (inactive)
GI50 [39]: > 100 µM (inactive)
GI50 [40]: > 100 µM (inactive)
GI50 [41]: > 10 µM (inactive)
GI50 [42]: > 100 µM (inactive)
GI50 [43]: > 100 µM (inactive)
GI50 [44]: > 100 µM (inactive)
GI50 [45]: > 100 µM (inactive)
GI50 [46]: > 100 µM (inactive)
GI50 [47]: > 100 µM (inactive)
GI50 [48]: > 100 µM (inactive)
GI50 [49]: > 100 µM (inactive)
GI50 [50]: > 100 µM (inactive)
GI50 [51]: 98.4 µM (inactive)
GI50 [52]: > 100 µM (inactive)
GI50 [53]: > 100 µM (inactive)

COc1ccc(Cc2coc3ccccc3c2=O)cc1OC
GI50 [1]: 42.8 µM (inactive)
GI50 [2]: 40.6 µM (inactive)
GI50 [3]: 59.2 µM (inactive)
GI50 [4]: 72.4 µM (inactive)
GI50 [5]: 72.1 µM (inactive)
GI50 [6]: > 100 µM (inactive)
GI50 [7]: 11.6 µM (inactive)
GI50 [8]: 53.8 µM (inactive)
GI50 [9]: 49.9 µM (inactive)
GI50 [10]: 56.1 µM (inactive)
GI50 [11]: > 100 µM (inactive)
GI50 [12]: > 100 µM (inactive)
GI50 [13]: 78 µM (inactive)
GI50 [15]: 61.1 µM (inactive)
GI50 [16]: 79.4 µM (inactive)
GI50 [54]: > 100 µM (inactive)
GI50 [17]: 43.5 µM (inactive)
GI50 [18]: 49.3 µM (inactive)
GI50 [20]: > 100 µM (inactive)
GI50 [55]: > 100 µM (inactive)
GI50 [21]: > 100 µM (inactive)
GI50 [22]: > 100 µM (inactive)
GI50 [56]: 28.4 µM (inactive)
GI50 [23]: > 100 µM (inactive)
GI50 [25]: > 100 µM (inactive)
GI50 [26]: > 100 µM (inactive)
GI50 [27]: > 100 µM (inactive)
GI50 [28]: > 100 µM (inactive)
GI50 [29]: > 100 µM (inactive)
GI50 [57]: 68.1 µM (inactive)
GI50 [30]: 38.5 µM (inactive)
GI50 [31]: 38 µM (inactive)
GI50 [32]: 31.8 µM
GI50 [33]: 33.3 µM (inactive)
GI50 [35]: > 100 µM (inactive)
GI50 [36]: > 100 µM (inactive)
GI50 [37]: 86.5 µM (inactive)
GI50 [38]: 36.1 µM (inactive)
GI50 [39]: > 100 µM (inactive)
GI50 [40]: 99.1 µM (inactive)
GI50 [41]: 21.3 µM (inactive)
GI50 [42]: 94 µM (inactive)
GI50 [43]: > 100 µM (inactive)
GI50 [44]: 33.2 µM (inactive)
GI50 [45]: 46.2 µM (inactive)
GI50 [46]: > 100 µM (inactive)
GI50 [47]: 28.3 µM (inactive)
GI50 [58]: 56.6 µM (inactive)
GI50 [48]: 72.6 µM (inactive)
GI50 [49]: > 100 µM (inactive)
GI50 [50]: 45.7 µM (inactive)
GI50 [51]: 93.5 µM (inactive)
GI50 [52]: 47.2 µM (inactive)
GI50 [53]: > 100 µM (inactive)
GI50 [59]: 52.4 µM (inactive)
